Columns and labels:
BRM = target: T1, BRM (Homo sapiens, UniProt P51531); assay: Western blot degradation of BRM (SMARCA2); type: cell-based; conditions: Molt-4 Cell; 24 hours
T1 construct: expression of target proteins in cells; endogenous in cells
Protocol: (§1) Conventional Western blot assay was performed to evaluate the effects of the compounds of the present disclosure on the expression of target proteins in cells.
(§2) (1) Cell Seeding and Protein Harvesting: The selected cells were processed according to the cell seeding procedure and protein harvesting procedure in Table II-2.
(§3) (2) To the collected supernatant, 5×SDS sample loading buffer was added, followed by denaturation at 95 °C for 5 minutes. The denatured samples were then separated by SDS-PAGE electrophoresis on a polyacrylamide gel. Proteins were transferred to a nitrocellulose membrane (0.45 μm NC membrane), blocked with blocking buffer at room temperature for 1 hour, and subjected to antibody incubation and development procedures according to the antibody manufacturer's instructions (Cell Signaling Technology).
(§4) Half-Maximal Degradation Concentration value (the drug concentration required for degrading proteins by 50%, abbreviated as DC50) reads method: comparing the grayscale values of Western blot bands from drug-treated samples with those from blank DMSO-treated controls, and identifying the drug concentration range at which the grayscale value is half that of the DMSO-treated control bands.
(§5) DC50 values can be calculated using ImageJ software to measure grayscale values of Western blot bands from drug-treated samples. The concentration-response curve is fitted to estimate the drug concentration corresponding to half the grayscale value.
(§6) Target protein remaining (%) refers to the percentage of target protein remaining in cells after treatment with protein degrader compounds.
(§7) Calculation method for target protein remaining (%): Use ImageJ software to measure grayscale values of Western blot bands from drug (protein degrader)-treated samples. The grayscale value of drug-treated bands is divided by that of internal control protein bands, and the resulting quotient is normalized to obtain the relative percentage of remaining target protein after protein degrader treatment.
(§8) Target protein degradation rate (%)=1−target protein remaining (%).

BRG1 = target: T2, BRG1 (Homo sapiens, UniProt P51532); assay: Western blot degradation of BRG1 (SMARCA4); type: cell-based; conditions: Molt-4 Cell; 24 hours
T2 construct: expression of target proteins in cells; endogenous in cells
Protocol: as §1, §2, §3, §4, §5, §6, §7, §8

AKT = assay: Western blot degradation of AKT; type: cell-based; conditions: hPBMC Cell; 24 hours
Protocol: as §1, §2, §3, §4, §5, §6, §7, §8

[1] = test system: Human neuroblastoma cell line (SK-N-AS); assay: Inhibition of SK-N-AS cell proliferation (CellTiter luminescent viability); type: cell-based; conditions: Table IK1, AKT inhibitor-based, 96 hours; for inhibition at 0.01 µM: 10 nM, read-out: Inhibition Rate at 10 nM (%); for inhibition at 0.5 µM: 500 nM, read-out: Inhibition Rate at 500 nM (%)
Protocol: (§9) The tumor cells used herein were cultured in a cell culture medium listed in table 3 at 37 °C in an incubator with 5% CO2. Prior to experimentation, all cell lines used were correctly identified by STR profiling, and tested negative for mycoplasma contamination using a mycoplasma detection kit through routine screenings.
(§10) The IC50 values of the compounds of the present disclosure (including the compounds in Table 1, Table 2, and Examples 1-468) were determined using the CellTiter-Meiluncell Luminescent Cell Viability Assay Kit from Dalian Meilun Biotech Co., Ltd. The detailed procedure is as follows: Tumor cells were seeded in 96-well cell culture plates at the densities specified in Table 4. On the following day, the test compounds of the present disclosure were subjected to serial dilution. The dilution can be performed according to one of the following two methods: • (1) The first dilution method: The test compounds of the present disclosure (including the compounds in Table 1, Table 2, and Examples 1-468) were subjected to 5-fold serial dilutions starting from a highest concentration of 2000 μM, resulting in a total of 9 concentrations from high to low (2000, 400, 80, 16, 3.2, 0.64, 0.128, 0.0256, 0.00512 μM). Subsequently, 0.5 μL of the test compound dilution was transferred into the 96-well plate containing the cells, with each well containing 100 μL of cell culture medium. […] Into the 96-well plate, the diluted test compounds and corresponding detection reagents were added, resulting in final test compound concentrations of 500 nM and 10 nM, respectively. The experimental procedure is described below using the diluted 2 μM test compound as an example.
(§11) 0.5 μL of the aforementioned diluted compound of the present disclosure (including the compounds in Table 1, Table 2, and Examples 1-468) was added to the seeded cells in 100 μL of medium, yielding a final test compound concentration of 10 nM. After the cells were treated with the compounds of the present disclosure for a specified period, the cell viability assay reagent was added to the culture medium according to the kit's instructions to determine cell viability. […] All controls were treated using the same procedure as the compounds of the present disclosure. The growth inhibition curves for the compounds of the present disclosure were plotted using Prism GraphPad software, and the IC50 values were calculated therefrom.

[2] = test system: Human Acute T Lymphoblastic Leukemia Cells (Molt-4); assay: Inhibition of Molt-4 cell proliferation (CellTiter luminescent viability); type: cell-based; conditions: Homo sapiens, MOLT-4, 96 h, Table IH3, BCL-2 inhibitor-based, 96 hours; for inhibition at 0.01 µM: Molt-4, 10 nM, read-out: Inhibition Rate at 10 nM (%); for inhibition at 0.5 µM: Molt-4, 500 nM, read-out: Inhibition Rate at 500 nM (%)
[3] = test system: Human acute lymphocytic leukemia T lymphocytes cell line (CCRF-CEM); assay: Inhibition of CCRF-CEM cell proliferation (CellTiter luminescent viability); type: cell-based; conditions: Homo sapiens, 96 h, Table IH2, BCL-2 inhibitor-based; for inhibition at 0.01 µM: 10 nM, read-out: Inhibition Rate at 10 nM (%); for inhibition at 0.5 µM: 500 nM, read-out: Inhibition Rate at 500 nM (%)
[4] = test system: Human prostate cancer cell line (NCI-H358); assay: Inhibition of NCI-H358 cell proliferation (CellTiter luminescent viability); conditions: Table IH1, BCL-2 inhibitor-based, 96 hours; for inhibition at 0.01 µM: NCI-H358, 10 nM, read-out: Inhibition Rate at 10 nM (%); for inhibition at 0.5 µM: NCI-H358, 500 nM, read-out: Inhibition Rate at 500 nM (%)
Protocol: as §9, §10, §11

T1 sequence (P51531 whole entry): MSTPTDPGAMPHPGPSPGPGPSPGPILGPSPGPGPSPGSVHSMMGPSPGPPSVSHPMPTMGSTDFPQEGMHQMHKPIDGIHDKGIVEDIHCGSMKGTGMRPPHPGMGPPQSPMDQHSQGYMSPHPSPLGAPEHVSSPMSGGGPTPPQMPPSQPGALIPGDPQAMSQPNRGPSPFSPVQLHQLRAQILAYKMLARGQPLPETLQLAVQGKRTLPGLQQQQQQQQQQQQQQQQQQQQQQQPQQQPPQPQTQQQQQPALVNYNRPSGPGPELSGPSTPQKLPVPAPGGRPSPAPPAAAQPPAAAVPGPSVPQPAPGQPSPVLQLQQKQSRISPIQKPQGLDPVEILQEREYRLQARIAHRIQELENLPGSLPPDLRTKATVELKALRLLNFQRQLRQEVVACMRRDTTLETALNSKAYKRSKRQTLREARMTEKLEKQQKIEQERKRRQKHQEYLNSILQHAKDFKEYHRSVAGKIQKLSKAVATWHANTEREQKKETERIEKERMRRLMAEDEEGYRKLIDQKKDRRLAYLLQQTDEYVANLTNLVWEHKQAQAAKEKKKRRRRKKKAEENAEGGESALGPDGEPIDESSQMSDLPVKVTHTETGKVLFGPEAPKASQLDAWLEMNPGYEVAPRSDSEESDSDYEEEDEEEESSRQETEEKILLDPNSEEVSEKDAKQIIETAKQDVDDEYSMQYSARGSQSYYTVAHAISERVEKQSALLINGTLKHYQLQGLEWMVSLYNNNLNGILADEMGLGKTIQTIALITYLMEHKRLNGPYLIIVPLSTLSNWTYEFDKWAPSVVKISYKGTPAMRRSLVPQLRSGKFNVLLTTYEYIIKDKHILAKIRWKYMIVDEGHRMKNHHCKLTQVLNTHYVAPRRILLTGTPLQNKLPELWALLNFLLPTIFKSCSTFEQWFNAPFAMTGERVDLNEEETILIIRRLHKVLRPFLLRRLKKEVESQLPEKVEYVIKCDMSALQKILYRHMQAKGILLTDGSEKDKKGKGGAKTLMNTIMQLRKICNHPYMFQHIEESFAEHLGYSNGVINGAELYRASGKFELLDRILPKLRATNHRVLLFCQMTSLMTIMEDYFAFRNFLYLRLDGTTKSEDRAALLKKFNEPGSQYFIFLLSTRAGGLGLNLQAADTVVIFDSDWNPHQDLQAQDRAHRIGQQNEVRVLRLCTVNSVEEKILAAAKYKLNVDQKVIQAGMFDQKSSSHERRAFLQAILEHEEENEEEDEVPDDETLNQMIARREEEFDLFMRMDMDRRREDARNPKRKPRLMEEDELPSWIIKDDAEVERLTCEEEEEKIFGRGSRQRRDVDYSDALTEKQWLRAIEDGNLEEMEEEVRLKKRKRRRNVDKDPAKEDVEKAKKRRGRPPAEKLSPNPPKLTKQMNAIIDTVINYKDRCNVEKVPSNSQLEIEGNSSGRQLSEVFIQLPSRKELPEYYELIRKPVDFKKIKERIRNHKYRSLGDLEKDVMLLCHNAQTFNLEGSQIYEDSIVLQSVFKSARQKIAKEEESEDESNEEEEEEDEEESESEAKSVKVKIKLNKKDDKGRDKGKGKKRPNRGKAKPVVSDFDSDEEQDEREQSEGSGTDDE
T2 sequence (P51532 whole entry): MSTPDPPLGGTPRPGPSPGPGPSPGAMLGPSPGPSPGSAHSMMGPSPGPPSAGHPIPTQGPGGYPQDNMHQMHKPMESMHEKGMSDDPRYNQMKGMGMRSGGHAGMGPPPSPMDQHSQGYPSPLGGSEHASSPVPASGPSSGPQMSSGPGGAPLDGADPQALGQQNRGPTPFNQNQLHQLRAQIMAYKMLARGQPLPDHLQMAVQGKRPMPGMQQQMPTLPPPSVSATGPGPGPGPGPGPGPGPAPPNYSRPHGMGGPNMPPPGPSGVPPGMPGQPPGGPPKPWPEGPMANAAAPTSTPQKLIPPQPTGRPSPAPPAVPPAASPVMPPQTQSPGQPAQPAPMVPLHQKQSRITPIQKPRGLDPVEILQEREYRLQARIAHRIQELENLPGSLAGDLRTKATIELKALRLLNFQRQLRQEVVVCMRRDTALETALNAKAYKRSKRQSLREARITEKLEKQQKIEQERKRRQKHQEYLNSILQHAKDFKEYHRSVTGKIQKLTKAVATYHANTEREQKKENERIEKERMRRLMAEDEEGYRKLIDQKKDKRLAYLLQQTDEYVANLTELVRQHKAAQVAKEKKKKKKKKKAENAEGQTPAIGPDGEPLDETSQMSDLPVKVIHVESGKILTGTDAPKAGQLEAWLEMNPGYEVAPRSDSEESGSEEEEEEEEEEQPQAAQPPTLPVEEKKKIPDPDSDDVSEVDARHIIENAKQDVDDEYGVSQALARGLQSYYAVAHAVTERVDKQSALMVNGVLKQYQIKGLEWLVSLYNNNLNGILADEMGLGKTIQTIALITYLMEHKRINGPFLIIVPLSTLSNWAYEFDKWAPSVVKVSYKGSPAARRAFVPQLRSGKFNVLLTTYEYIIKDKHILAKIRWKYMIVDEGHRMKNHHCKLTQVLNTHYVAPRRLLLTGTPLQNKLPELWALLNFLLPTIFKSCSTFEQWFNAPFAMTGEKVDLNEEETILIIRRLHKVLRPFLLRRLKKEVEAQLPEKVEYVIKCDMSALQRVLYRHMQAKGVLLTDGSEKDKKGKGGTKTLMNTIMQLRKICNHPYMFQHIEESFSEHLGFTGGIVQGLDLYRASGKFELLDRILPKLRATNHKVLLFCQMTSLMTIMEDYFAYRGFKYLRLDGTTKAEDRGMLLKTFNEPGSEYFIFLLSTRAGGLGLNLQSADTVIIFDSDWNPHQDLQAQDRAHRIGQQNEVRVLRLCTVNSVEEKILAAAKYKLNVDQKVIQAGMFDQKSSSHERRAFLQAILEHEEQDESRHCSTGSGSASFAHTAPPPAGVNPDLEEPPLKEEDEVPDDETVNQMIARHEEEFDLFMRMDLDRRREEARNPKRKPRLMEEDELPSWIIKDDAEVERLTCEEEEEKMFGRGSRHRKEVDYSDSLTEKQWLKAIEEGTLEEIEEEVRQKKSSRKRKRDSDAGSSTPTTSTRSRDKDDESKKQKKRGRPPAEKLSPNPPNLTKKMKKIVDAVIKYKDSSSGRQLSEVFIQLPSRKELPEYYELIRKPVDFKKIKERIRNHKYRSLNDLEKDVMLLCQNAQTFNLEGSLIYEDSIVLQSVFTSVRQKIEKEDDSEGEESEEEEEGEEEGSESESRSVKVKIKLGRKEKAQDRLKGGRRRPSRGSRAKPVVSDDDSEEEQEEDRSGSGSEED

SMILES: Nc1nnc(-c2cc(F)ccc2O)cc1N1CCN(CC2CCN(c3ccc4c(c3)C(=O)N(N3CCC(=O)NC3=O)C4=O)CC2)CC1 [GT-05068, 5-(4-((4-(3-amino-6-(5-fluoro-2-hydroxyphenyl)pyridazin-4-yl)piperazin-1-yl)methyl)piperidin-1-yl)-2-(2,4-dioxotetrahydropyrimidin-1(2H)-yl)isoindoline-1,3-dione]
- Degradation of substrate protein BRM (substrate protein remaining %) (BRM): A (0%≤substrate protein remaining %≤80%)
- Degradation of substrate protein BRG1 (substrate protein remaining %) (BRG1): B (80%<substrate protein remaining %≤100%)

SMILES: Nc1nnc(-c2ccccc2O)cc1N1CCN(Cc2ccc3c(c2)CN(N2CCC(=O)NC2=O)C3=O)CC1 [GT-04952, 1-(5-((4-(3-amino-6-(2-hydroxyphenyl)pyridazin-4-yl)piperazin-1-yl)methyl)-1-oxoisoindolin-2-yl)dihydropyrimidine-2,4 (1H,3H)-dione]
- Degradation of substrate protein BRM (substrate protein remaining %) (BRM): A (0%≤substrate protein remaining %≤80%)
- Degradation of substrate protein BRG1 (substrate protein remaining %) (BRG1): A (0%≤substrate protein remaining %≤80%)

SMILES: Nc1nnc(-c2cc(F)ccc2O)cc1N1CCN(CC2CCN(C3CCN(c4ccc5c(c4)C(=O)N(N4CCC(=O)NC4=O)C5=O)CC3)CC2)CC1 [GT-05094, 5-(4-((4-(3-amino-6-(5-fluoro-2-hydroxyphenyl)pyridazin-4-yl)piperazin-1-yl)methyl)-[1,4′-bipiperidin]-1′-yl)-2-(2,4-dioxotetrahydropyrimidin-1(2H)-yl)isoindoline-1,3-dione]
- Degradation of substrate protein BRM (substrate protein remaining %) (BRM): A (0%≤substrate protein remaining %≤80%)
- Degradation of substrate protein BRG1 (substrate protein remaining %) (BRG1): B (80%<substrate protein remaining %≤100%)

SMILES: Nc1nnc(-c2ccccc2O)cc1N1CCN(CC2CCN(c3cccc4c3C(=O)N(N3CCC(=O)NC3=O)C4=O)CC2)CC1 [GT-05070, 4-(4-((4-(3-amino-6-(2-hydroxyphenyl)pyridazin-4-yl)piperazin-1-yl)methyl)piperidin-1-yl)-2-(2,4-dioxotetrahydropyrimidin-1(2H)-yl)isoindoline-1,3-dione]
- Degradation of substrate protein BRM (substrate protein remaining %) (BRM): A (0%≤substrate protein remaining %≤80%)
- Degradation of substrate protein BRG1 (substrate protein remaining %) (BRG1): B (80%<substrate protein remaining %≤100%)

SMILES: Cn1ncc(Cl)c1-c1cc(C(=O)N[C@@H](Cc2cccc(F)c2)CN2CCN(Cc3ccc4c(c3)CN(N3CCC(=O)NC3=O)C4=O)CC2)sc1Cl [GT-08576, (S)-5-chloro-4-(4-chloro-1-methyl-1H-pyrazol-5-yl)-N-(1-(4-((2-(2,4-dioxotetrahydropyrimidin-1(2H)-yl)-1-oxoisoindolin-5-yl)methyl)piperazin-1-yl)-3-(3-fluorophenyl)propan-2-yl)thiophene-2-carboxamide]
- Degradation of substrate protein AKT (substrate protein remaining %) (AKT): A (0%≤substrate protein remaining %≤80%)
- inhibition at 0.01 µM [1]: 15 to 20%
- inhibition at 0.5 µM [1]: 20 to 30%

SMILES: CC1(C)CCC(CN2CCN(c3ccc(C(=O)NS(=O)(=O)c4ccc(NCC5CCOCC5)c([N+](=O)[O-])c4)c(Oc4cnc5[nH]ccc5c4)c3)CC2)=C(c2ccc(Cl)cc2)C1 [ABT-199, Venetoclax, reference compound]
- inhibition at 0.01 µM [2]: -5 to 0%
- inhibition at 0.5 µM [2]: 30 to 40%
- inhibition at 0.01 µM [3]: -5 to 0%
- inhibition at 0.5 µM [3]: -5 to 0%
- inhibition at 0.01 µM [4]: 5 to 10%
- inhibition at 0.5 µM [4]: 5 to 10%

SMILES: Nc1nnc(-c2cc(F)ccc2O)cc1N1CCN(Cc2ccc3c(c2)CN(N2CCC(=O)NC2=O)C3=O)CC1 [GT-05061, 1-(5-((4-(3-amino-6-(5-fluoro-2-hydroxyphenyl)pyridazin-4-yl)piperazin-1-yl)methyl)-1-oxoisoindolin-2-yl)dihydropyrimidine-2,4 (1H,3H)-dione]
- Degradation of substrate protein BRM (substrate protein remaining %) (BRM): A (0%≤substrate protein remaining %≤80%)
- Degradation of substrate protein BRG1 (substrate protein remaining %) (BRG1): B (80%<substrate protein remaining %≤100%)

SMILES: Nc1nnc(-c2ccccc2O)cc1N1CCN(CC2CCN(c3ccc4c(c3)C(=O)N(N3CCC(=O)NC3=O)C4=O)CC2)CC1 [GT-04954, 5-(4-((4-(3-amino-6-(2-hydroxyphenyl)pyridazin-4-yl)piperazin-1-yl)methyl)piperidin-1-yl)-2-(2,4-dioxotetrahydropyrimidin-1(2H)-yl)isoindoline-1,3-dione]
- Degradation of substrate protein BRM (substrate protein remaining %) (BRM): A (0%≤substrate protein remaining %≤80%)
- Degradation of substrate protein BRG1 (substrate protein remaining %) (BRG1): A (0%≤substrate protein remaining %≤80%)

SMILES: Nc1nnc(-c2cc(F)ccc2O)cc1N1CCN(Cc2ccc3c(c2)C(=O)N(N2CCC(=O)NC2=O)C3=O)CC1 [GT-05072, 5-((4-(3-amino-6-(5-fluoro-2-hydroxyphenyl)pyridazin-4-yl)piperazin-1-yl)methyl)-2-(2,4-dioxotetrahydropyrimidin-1(2H)-yl)isoindoline-1,3-dione]
- Degradation of substrate protein BRM (substrate protein remaining %) (BRM): A (0%≤substrate protein remaining %≤80%)
- Degradation of substrate protein BRG1 (substrate protein remaining %) (BRG1): B (80%<substrate protein remaining %≤100%)

SMILES: Cn1ncc(Cl)c1-c1cc(C(=O)N[C@H](CNCc2ccc3c(c2)CN(N2CCC(=O)NC2=O)C3=O)Cc2ccc(F)c(F)c2)oc1Cl [GT-08574, (S)-5-chloro-4-(4-chloro-1-methyl-1H-pyrazol-5-yl)-N-(1-(3,4-difluorophenyl)-3-(((2-(2,4-dioxotetrahydropyrimidin-1(2H)-yl)-1-oxoisoindolin-5-yl)methyl)amino)propan-2-yl) furan-2-carboxamide]
- Degradation of substrate protein AKT (substrate protein remaining %) (AKT): A (0%≤substrate protein remaining %≤80%)
- inhibition at 0.01 µM [1]: 5 to 10%
- inhibition at 0.5 µM [1]: 20 to 30%

SMILES: CC1(C)CCC(c2ccc(Cl)cc2)=C(CN2CCN(c3ccc(C(=O)NS(=O)(=O)c4ccc(N[C@H](CCN5CC6CCC(C5)N6Cc5ccc6c(c5)CN(N5CCC(=O)NC5=O)C6=O)CSc5ccccc5)c(S(=O)(=O)C(F)(F)F)c4)cc3)CC2)C1 [GT-07813, 4-(4-((4′-chloro-4,4-dimethyl-3,4,5,6-tetrahydro-[1,1′-biphenyl]-2-yl)methyl)piperazin-1-yl)-N-((4-(((2R)-4-(8-((2-(2,4-dioxotetrahydropyrimidin-1(2H)-yl)-1-oxoisoindolin-5-yl)methyl)-3,8-diazabicyclo[3.2.1]octan-3-yl)-1-(phenylthio)butan-2-yl)amino)-3-((trifluoromethyl)sulfonyl)phenyl)sulfonyl)benzamide]
- inhibition at 0.01 µM [2]: 10 to 15%
- inhibition at 0.5 µM [2]: 80 to 100%
- inhibition at 0.01 µM [3]: 5 to 10%
- inhibition at 0.5 µM [3]: 60 to 70%
- inhibition at 0.01 µM [4]: 15 to 20%
- inhibition at 0.5 µM [4]: 20 to 30%
